From patent US9045563B2, “CXC chemokine receptor 4 (CXCR4) antagonistic polypeptide” (priority 2007, dated 2015) come the findings set out here.

Ends that are not written are not given here.

For test [1], the target named is CXCR4 (Homo sapiens, UniProt P61073). The test can be described thus: Fluorescent binding assay on whole living cells, CXCL12-TR competition on HEK293 EGFP-hCXCR4. Further details: expressed in transfected cells. The procedure:
FIG. 17. CXCR4 antagonistic activities of ALB derivatives. […] CXCR4 or CCR5 expressing HEK293 cells were treated with CXCR4 agonist CXCL12 (10 nM) or CCR5 agonist CCL5 (20 nM), respectively, in the absence (no ALB) or presence of indicated ALB derivatives (50 μM). Calcium responses were recorded as described. Data shown are mean values±standard deviation derived from duplicates relative to peak calcium responses after treatment with agonists only (100%). […] CXCR4 expressing HEK293 cells were treated with Texas Red labeled CXCL12 (CXCL12-Tr) in the presence or absence of ALB peptides. Real-time fluorescence monitoring of ligand-receptor interactions was carried out as described.

The subject of test [2] is X4 tropic HIV-1 NL4-3. Particulars: read-out: IC50 ± SEM; TZM-bl cells, X4 tropic HIV-1 NL4-3, two days post infection, synthetic peptides. The procedure: HIV inhibition test were performed by seeding 4000 P4-R5 MAGI cells (P. Charneau et al., J. Mol. Biol. 241: 651, 1994) in 100 μl of DMEM (10% FCS, 100 U/ml penicillin G, and 100 μg/ml streptomycin sulfate). P4-R5 cells are stably transfected with an LTR-lacZ cassette and upon successful infection by HIV-1 will express—galactosidase in a Tat-dependent manner, which can be detected in a chemiluminescence test. On the following day, aliquots of the fractions were added. Therefor the lyophilized fractions were resuspended in 80 μl of DMEM, and 25 μl each thereof was pipetted to P4-R5 cells, incubated at 37° C. for 1 hour and subsequently infected with HIV-1 NL4—3 (1 ng of p24 antigen). Virus stocks were obtained by transient infection of 293T cells with proviral DNA by the calcium phosphate method (CalPhos™ Mammalian Transfection Kit, Clontech). Virus stocks were harvested 48 hours post transfection, filtrated and used for infection. Three days post infection, β-galactosidase activity in infected P4-R5 cells was detected using GalScreen assay (TROPIX) as recommended by the manufacturer. Briefly, supernatant was removed, 40 μl of a 1:1 dilution of PBS/GalScreen+substrate was added, followed by incubation at room temperature for 30 min. Then 30 μl of the lysates were transferred into 96 well lumiplates. Subsequently, the lumines-cence was detected as relative light units per second in a luminometer (Berthold, ORION). From all measurements, the mean β-galactosidase background activity of non-infected control cells was subtracted. % infection values for each infection were calculated relative to no peptide containing controls (100%). The enzyme activities in measurements without ALB408-423 were set at 100%, and all other values were based thereon. The final purification (7th step) was examined under exactly the same conditions in TZM-bl cells (X. Wei et al., Antimicrob. Agents Chemother. 46: 1896, 2002).
1.6 mg of fraction 31 from the 7th step in Example 1 was dissolved in 160 μl of DMEM. Subsequently, 10 μl of serial dilutions of fraction 31 containing ALB408-423 were added to 60 μl of TZM-bl cells (60 μl) and infected with 1 ng of p24 antigen HIV-1 NL4—3 in a total volume of 100 μl. Three days later, infection rates were determined in a GalScreen assay (see Example 1).
5000 TZM-bl cells were seeded in 100 μl of DMEM (10% FCS, 100 U/ml of penicillin G and 100 μg/ml of streptomycin sulfate). ALB408-423 was dissolved in PBS (10 mg/ml). One day later, 20 μl serial dilutions of ALB408-423 in PBS were added to cells and cells were subsequently infected with 0.5 ng of p24 antigen HIV-1 in a total volume of 200 μl. HIV-1 molecular clones differing in coreceptor tropism were used and generated as described (Papkalla et al., J. Virol. 76: 8455-9, 2002).
Table 1. Antiviral activity of various ALB fragments against X4 tropic HIV-1 NL4-3 infection. TZM-bl cells containing serial dilutions of synthetic peptides were infected with HIV-1 NL4-3 and infection rates were determined and calculated as described in example 1 and 2 at two days post infection. IC50 values were determined using the GraphPad Prism software package.
Various ALB408-423 derivatives containing N or C terminal deletions or amino acid substitutions (Table 1) were chemically synthesized and lyophilized peptides were dissolved in PBS. The antiviral activity was analyzed in TZM-bl cells using X4 tropic HIV-1 NL4-3 as described (example 4).

Sequence of CXCR4 (P61073 whole entry): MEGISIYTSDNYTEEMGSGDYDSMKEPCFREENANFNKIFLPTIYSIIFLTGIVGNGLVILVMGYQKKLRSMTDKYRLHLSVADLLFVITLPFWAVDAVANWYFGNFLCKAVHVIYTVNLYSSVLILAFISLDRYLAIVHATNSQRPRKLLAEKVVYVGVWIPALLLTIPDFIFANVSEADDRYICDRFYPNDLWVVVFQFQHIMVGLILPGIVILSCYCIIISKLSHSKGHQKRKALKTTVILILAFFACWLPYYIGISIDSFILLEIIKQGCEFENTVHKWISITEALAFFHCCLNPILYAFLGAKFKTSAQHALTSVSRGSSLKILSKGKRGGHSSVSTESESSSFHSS

What is called Kd is the equilibrium constant for the complex coming apart. Usually IC50 stands for the concentration needed to halve the response being measured. As for LVRYTK [ALB408-413, LVRYTK], the Kd in test [1] is greater than 200 µM. Moreover, in test [2], the IC50 is greater than 50 µM.
